Experimental data from ChEMBL document CHEMBL1201862, “PubChem BioAssay data set” (2004).
Calls of active or inactive are those of the source.

Legend:
Estrogen receptor = Estrogen receptor (Homo sapiens, UniProt P03372);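 also: potency for inhibiting coactivator peptide recruitment to the receptor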
[1] = target: T1, Carboxy-terminal domain RNA polymerase II polypeptide A small phosphatase 1 (Homo sapiens, UniProt Q9GZU7); assay: inhibitors of CTDSP1, concentration-response testing, biochemical assay, absorbance-based, actives from ultra-high-throughput screening (AID 540297); type: functional
T1 sequence (Q9GZU7 whole entry): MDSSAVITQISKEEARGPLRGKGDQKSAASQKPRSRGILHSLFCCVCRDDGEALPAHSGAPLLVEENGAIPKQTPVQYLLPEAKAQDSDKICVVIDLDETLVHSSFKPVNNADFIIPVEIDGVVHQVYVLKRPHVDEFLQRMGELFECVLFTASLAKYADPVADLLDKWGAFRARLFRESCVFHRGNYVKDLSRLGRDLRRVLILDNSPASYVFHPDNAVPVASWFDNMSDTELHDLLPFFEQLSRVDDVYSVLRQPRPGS

[2] = target: Ubiquitin carboxyl-terminal hydrolase BAP1 (Homo sapiens, UniProt Q92560); assay: BAP1 deubiquitinase inhibitors, dose response, biochemical (AID 714); type: functional
Estrogen receptor beta = Estrogen receptor beta (Homo sapiens, UniProt Q92731); assay: ERβ–SRC-3 coactivator interaction inhibitors, confirmation, orthogonal assay, biochemical, ELISA, streptavidin-HRP readout (AID 1060)
Leucine aminopeptidase = target: T2, Leucine aminopeptidase (Plasmodium falciparum 3D7, UniProt Q8IL11); assay: P. falciparum M17LAP inhibitors, primary screen, biochemical, fluorogenic H-Leu-NHMec substrate, 1536-well (AID 1619); type: functional
T2 sequence (Q8IL11 whole entry): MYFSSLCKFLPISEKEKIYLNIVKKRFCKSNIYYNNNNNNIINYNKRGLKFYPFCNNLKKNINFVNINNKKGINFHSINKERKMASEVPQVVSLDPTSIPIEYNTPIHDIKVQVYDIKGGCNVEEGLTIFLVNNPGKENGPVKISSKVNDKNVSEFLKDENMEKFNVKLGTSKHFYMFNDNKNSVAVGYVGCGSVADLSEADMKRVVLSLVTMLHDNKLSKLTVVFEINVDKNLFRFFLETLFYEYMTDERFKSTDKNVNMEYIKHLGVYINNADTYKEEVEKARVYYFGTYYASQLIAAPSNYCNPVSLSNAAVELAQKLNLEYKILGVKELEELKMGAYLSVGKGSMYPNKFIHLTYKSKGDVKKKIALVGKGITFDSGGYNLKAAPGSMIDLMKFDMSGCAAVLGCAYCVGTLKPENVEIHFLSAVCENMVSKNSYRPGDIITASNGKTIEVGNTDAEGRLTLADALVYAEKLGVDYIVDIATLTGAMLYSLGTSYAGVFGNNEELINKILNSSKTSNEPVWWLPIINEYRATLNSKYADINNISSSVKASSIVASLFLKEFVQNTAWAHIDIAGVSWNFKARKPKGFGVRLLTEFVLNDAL

[3] = target: Mitogen-activated protein kinase 10 (Homo sapiens, UniProt P53779); assay: Dose response biochemical screening assay for inhibitors of c-Jun N-Terminal Kinase 3 (JNK3). [Related pubchem assays: 746 ]
[4] = target: T3, COUP transcription factor 2 (Homo sapiens, UniProt P24468); assay: Luminescence-based cell-based high throughput dose response assay to identify inhibitors of COUP-TFII (NR2F2).; type: functional;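 also: HEK293 cells transiently cotransfected with COUP-TFII expression vector and reporter; luciferase reporter luminescence driven by COUP-TFII from the pX2-168 reporter plasmid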
T3 sequence (P24468 whole entry): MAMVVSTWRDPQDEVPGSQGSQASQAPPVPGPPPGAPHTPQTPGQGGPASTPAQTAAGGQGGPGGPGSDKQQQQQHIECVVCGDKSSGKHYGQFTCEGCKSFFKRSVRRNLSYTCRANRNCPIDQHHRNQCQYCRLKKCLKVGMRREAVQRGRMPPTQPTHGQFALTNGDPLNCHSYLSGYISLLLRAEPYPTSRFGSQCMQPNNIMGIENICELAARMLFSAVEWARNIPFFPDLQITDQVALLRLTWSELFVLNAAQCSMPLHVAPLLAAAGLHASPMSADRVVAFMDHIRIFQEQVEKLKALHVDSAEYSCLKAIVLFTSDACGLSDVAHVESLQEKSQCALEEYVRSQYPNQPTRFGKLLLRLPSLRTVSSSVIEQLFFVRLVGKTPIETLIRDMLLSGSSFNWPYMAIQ

INS1 = assay: beta cell apoptosis inhibitors, cytokine rescue, dose response, luminescence, retest (AID 449756); type: functional, cell-based; details: Rattus norvegicus;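 also: cell death triggered by IL-1 beta plus TNF-alpha plus IFN-gamma mixture; protective hits raise ATP signal compared with cytokine alone wells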
[5] = target: Sphingosine 1-phosphate receptor 2 (Homo sapiens, UniProt O95136); assay: Dose Response Cell Based Assay for Antagonists of the S1P2 Receptor. [Related pubchem assays: 856, 736 ]; type: functional
[6] = target: G-protein coupled receptor 183 (Homo sapiens, UniProt P32249); assay: SAR confirmation of small molecule antagonists of the EBI2 receptor via a luminescent beta-arrestin assa.; type: functional
[7] = target: T4, Low molecular weight phosphotyrosine protein phosphatase (Homo sapiens, UniProt P24666); assay: LMPTP phosphatase inhibitors, dose response, biochemical, OMFP substrate, fluorescence intensity, set 2 (AID 743307); type: functional
T4 sequence (P24666 whole entry): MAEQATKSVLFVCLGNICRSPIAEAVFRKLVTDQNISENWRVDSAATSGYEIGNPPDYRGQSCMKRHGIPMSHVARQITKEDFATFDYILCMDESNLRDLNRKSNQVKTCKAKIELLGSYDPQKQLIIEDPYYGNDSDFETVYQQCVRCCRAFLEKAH

[8] = target: T4, Low molecular weight phosphotyrosine protein phosphatase; assay: LMPTP phosphatase inhibitors, colorimetric pNPP readout, dose response, orthogonal assay, biochemical, absorbance, pNPP substrate, LMPTP-A isoform, set 2 (AID 743308); type: functional
[9] = Luminescent dose response cell-based high throughput screening assay for inhibitors of the Janus kinase 2 mutant JAK2V617F. [Related pubchem assays: 1446 (Primary screen.), 1521 (Confirmation assay.), 1486 (Counter screen.)]; type: functional
cells = type: functional
[10] = cytotoxicity toward NIH3T3 fibroblasts, dose response, counter-screen, cell-based, ATP luminescence, mouse fibroblasts (AID 2010); type: functional;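 also: cells exposed to compound for about 90 hours before reading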
[11] = inhibitors of intracellular T. cruzi replication, confirmation, NIH3T3 host cells, beta-gal luminescence (AID 2044); type: functional, cell-based;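 also: intracellular parasites grown in NIH/3T3 mouse fibroblasts as host cells; luminescent beta-galactosidase reporter signal from transgenic T. cruzi replicating inside host cells; inhibitors lower the luminescence signal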
[12] = THP-1 cell cytotoxicity, dose response, cytotoxicity control for non-replicating M. tuberculosis project (AID 489025); type: functional
HEK293 = assay: inhibitors of LMP1-driven NF-kB reporter, dose response, cell-based, HEK293, luciferase, cherry-pick (AID 588343); type: functional; details: Homo sapiens
[13] = Vero E6 cell cytotoxicity, dose response, cytotoxicity control for non-replicating M. tuberculosis project, secondary assay (AID 492998); type: functional, VeroE6; details: Vero C1008

Sequence of Estrogen receptor (P03372 whole entry, the tested form may be a part): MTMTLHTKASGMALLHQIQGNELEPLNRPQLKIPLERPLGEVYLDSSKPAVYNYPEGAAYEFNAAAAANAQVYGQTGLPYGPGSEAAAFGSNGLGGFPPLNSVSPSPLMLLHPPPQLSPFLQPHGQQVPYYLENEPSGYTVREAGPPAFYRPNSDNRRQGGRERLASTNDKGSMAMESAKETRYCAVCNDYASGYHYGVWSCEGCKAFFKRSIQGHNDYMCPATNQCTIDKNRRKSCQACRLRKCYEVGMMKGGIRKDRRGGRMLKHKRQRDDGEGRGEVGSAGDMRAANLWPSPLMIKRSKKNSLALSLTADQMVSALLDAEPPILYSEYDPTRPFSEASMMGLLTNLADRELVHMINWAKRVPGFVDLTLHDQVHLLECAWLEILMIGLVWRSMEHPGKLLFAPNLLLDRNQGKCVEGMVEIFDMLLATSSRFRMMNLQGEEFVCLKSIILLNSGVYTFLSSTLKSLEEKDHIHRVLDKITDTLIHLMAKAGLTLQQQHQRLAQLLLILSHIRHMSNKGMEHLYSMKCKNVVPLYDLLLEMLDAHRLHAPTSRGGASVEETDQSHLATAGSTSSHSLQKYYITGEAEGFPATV
Sequence of G-protein coupled receptor 183 (P32249 whole entry): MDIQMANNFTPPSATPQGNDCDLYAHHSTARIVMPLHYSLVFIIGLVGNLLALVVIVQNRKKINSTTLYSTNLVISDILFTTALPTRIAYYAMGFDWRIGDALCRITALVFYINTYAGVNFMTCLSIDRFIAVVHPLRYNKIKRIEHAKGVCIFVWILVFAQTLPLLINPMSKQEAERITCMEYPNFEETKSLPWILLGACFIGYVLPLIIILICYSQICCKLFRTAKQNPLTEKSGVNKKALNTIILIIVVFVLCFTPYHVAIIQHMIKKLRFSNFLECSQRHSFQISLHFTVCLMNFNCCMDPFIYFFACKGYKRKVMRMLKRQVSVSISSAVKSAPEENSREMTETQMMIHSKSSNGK
Sequence of Mitogen-activated protein kinase 10 (P53779 whole entry): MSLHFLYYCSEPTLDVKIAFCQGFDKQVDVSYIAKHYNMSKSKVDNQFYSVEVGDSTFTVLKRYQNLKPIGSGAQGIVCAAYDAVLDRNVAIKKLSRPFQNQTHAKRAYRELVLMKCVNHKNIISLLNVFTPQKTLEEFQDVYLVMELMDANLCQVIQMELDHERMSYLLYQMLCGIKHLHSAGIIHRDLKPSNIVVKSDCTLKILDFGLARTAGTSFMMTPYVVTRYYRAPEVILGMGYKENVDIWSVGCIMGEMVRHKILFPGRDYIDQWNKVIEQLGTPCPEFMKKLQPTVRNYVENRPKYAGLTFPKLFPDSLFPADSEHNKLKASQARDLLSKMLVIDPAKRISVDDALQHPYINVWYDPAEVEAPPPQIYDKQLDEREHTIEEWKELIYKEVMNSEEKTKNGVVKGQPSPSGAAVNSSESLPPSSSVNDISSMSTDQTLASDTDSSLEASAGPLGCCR
Sequence of Estrogen receptor beta (Q92731 whole entry): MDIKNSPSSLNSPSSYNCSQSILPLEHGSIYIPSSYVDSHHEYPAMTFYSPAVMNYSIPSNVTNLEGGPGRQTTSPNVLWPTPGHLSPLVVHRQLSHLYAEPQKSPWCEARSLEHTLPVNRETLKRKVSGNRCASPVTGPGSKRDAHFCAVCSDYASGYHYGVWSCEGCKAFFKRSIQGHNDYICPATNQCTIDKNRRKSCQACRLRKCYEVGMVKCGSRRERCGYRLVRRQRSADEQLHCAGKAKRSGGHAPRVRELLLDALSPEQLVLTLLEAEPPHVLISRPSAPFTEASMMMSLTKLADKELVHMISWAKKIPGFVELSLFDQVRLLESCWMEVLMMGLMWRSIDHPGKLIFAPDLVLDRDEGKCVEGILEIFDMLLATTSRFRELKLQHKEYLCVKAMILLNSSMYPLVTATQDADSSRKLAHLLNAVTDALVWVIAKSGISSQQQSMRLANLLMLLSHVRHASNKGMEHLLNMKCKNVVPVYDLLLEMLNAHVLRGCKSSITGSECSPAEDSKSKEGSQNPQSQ
Sequence of Ubiquitin carboxyl-terminal hydrolase BAP1 (Q92560 whole entry): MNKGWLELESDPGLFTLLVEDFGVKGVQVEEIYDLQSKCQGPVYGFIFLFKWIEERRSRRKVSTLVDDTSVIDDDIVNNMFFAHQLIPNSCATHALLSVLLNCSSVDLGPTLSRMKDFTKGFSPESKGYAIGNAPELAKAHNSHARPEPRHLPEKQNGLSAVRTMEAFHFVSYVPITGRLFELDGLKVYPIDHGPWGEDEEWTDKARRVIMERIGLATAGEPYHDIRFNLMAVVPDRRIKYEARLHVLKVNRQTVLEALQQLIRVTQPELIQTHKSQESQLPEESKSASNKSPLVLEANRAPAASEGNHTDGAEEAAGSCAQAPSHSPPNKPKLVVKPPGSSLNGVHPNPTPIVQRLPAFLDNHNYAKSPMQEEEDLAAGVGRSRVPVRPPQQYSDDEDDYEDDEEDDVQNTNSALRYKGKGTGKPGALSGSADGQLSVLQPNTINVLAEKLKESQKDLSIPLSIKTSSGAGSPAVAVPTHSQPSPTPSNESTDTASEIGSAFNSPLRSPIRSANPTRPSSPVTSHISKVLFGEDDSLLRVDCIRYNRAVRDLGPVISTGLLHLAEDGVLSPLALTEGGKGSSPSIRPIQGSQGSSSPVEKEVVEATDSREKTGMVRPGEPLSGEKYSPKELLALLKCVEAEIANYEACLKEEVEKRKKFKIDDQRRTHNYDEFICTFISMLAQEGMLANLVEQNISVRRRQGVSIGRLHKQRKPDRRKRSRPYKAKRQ
Sequence of Sphingosine 1-phosphate receptor 2 (O95136 whole entry): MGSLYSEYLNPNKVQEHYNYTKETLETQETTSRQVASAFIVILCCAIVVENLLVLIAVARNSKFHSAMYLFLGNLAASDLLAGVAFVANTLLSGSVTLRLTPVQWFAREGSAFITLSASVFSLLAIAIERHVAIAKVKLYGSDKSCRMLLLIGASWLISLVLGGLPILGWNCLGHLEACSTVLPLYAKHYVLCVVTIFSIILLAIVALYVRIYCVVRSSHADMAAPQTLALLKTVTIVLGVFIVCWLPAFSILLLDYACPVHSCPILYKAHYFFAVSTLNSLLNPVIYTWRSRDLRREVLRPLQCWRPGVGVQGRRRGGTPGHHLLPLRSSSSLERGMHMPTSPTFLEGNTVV

Compound: CCOC(=O)c1ccc(NC(=O)CSc2nc(C)cc(=O)[nH]2)cc1
- IC50 (Estrogen receptor): 3.06 µM (active)
- IC50 [1]: 2.67 µM (active)
- IC50 [2]: 23.3 µM (active)
- IC50 (Estrogen receptor beta): < 0.023 µM (not active)
- IC50 (Leucine aminopeptidase): 11.8 µM (active)

Compound: COc1ccc(C2C(C#N)=C(N)SC(N)=C2C#N)cc1OC
- IC50 [3]: > 31 µM (not active)

Compound: CCOC(=O)N1CCN(C(=O)CSCC(=O)Nc2nc(-c3ccc(-c4ccccc4)cc3)cs2)CC1
- IC50 [4]: 5.66 µM (active)
- AC50 (INS1): 4.63 µM (active)
- IC50 [5]: 2.47 µM (active)

Compound: Cc1ccc(S(=O)(=O)N2CCN(C(=O)/C=C/c3ccc(F)cc3)CC2)cc1
- IC50 [6]: 0.00767 µM (active)

Compound: c1ccc2c(NCCCN3CCCCC3)cc(-c3ccncc3)nc2c1
- IC50 [7]: 2.48 µM (active)
- IC50 [8]: 6.49 µM (active)

Compound: COc1ccccc1-c1nnc(Sc2nc([N+](=O)[O-])nn2C)o1
- IC50 [9]: 1.52 µM (active)
- IC50 (cells): 1.95 µM (active)
- EC50 [10]: 17.5 µM (active)
- EC50 [11]: 0.556 µM (active)
- CC50 [12]: 13.6 µM (active)
- AC50 (HEK293): 4.37 µM (active)
- CC50 [13]: 17.5 µM (active)
